Strand notation (5' to 3'): a small letter for the sugar, then the base; units joined by * are phosphorothioate-linked, units joined directly phosphodiester-linked; [ ] holds rarer units or linkages, { } end groups; capitals alone tell only the bases. e = 2'-O-(2-methoxyethyl) (MOE); l = locked nucleic acid (LNA); [5mC] = 5-methylcytosine; d = 2'-deoxy (DNA)
Experiments:
human ABCB11 mRNA [1] = assay: ASO treatment of primary human hepatocytes (PHH), ABCB11 mRNA by RT-qPCR normalized to B2M; type: cell-based; design: ABCB11 mRNA, dose titration: unit of the concentration uncertain; details: for ABCB11 mRNA expression, dose response: Day 4 after ASO treatment (FIG. 5A); for ABCB11 mRNA, dose titration: CO-3986 and CO-4529 tested at 2.5 (unit uncertain), 5 μM, and 10 μM; for ABCB11 mRNA FC (5 μM ASO vs. UNT): normalized to untreated PHHs (UNT)
How it was run: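 Plated primary human hepatocytes were treated 4 h post-thaw with ASO (e.g., 1.25–10 μM; initial screen 5 μM) in medium containing 0.3 mg/ml Matrigel for 72 hrs. Total RNA was reverse-transcribed and ABCB11 mRNA measured by Taqman RT-qPCR, normalized to B2M, with fold change versus untreated PHHs.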

CYP7A1 mRNA = assay: ASO treatment of primary human hepatocytes (PHH), CYP7A1 mRNA by RT-qPCR normalized to B2M; type: cell-based; details: for expression of CYP7A1 mRNA, dose response: PHHs (FIG. 3B); for CYP7A1 mRNA levels, dose response: PHHs, Day 4, relative to B2M (FIG. 5B)
Protocol: Primary human hepatocytes (PHH) were thawed using Lonza Human Cryopreserved Hepatocyte Thawing Medium and plated in 96-well collagen-coated plates (5.5-6.0×10^4 cells per well). Four hours later, the media was replaced with sterile-filtered QualGro™ Hepatocyte Culture Medium (BioIVT) containing antibiotic supplement, 0.3 mg/ml Matrigel® matrix (Corning®), and ASO at the desired concentration (e.g., 1.25 μM, 2.5 μM, 5 μM, or 10 μM). […] Plates were frozen at-80° C. during cell lysis. After thawing, total RNA was isolated using the Qiagen RNEasy kit as instructed by manufacturer. cDNA (random-primed) was synthesized from 10 μl of RNA using the LifeTech High Capacity cDNA Reverse Transcription kit. 2 μl of cDNA was used for reverse transcription-quantitative PCR (RT-qPCR) analyses using standard Taqman” reagents from Applied Biosystems™ to measure ABCB11 and CYP7A1 gene expression. Gene expression data was normalized to the housekeeper gene, beta-2-microglobulin (B2M).
ASOs targeting ABCB11 regRNA enhance bile acid efflux in vitro. Levels of cholesterol 7 alpha-hydroxylase (CYP7A1) mRNA (or the enzymatic activity of its protein) can be used to track changes in bile acid synthesis in the liver since the CYP7A1 protein is the first and rate-limiting step in the conversion of cholesterol to bile acids (see, e.g., Chiang and Ferrel (2020) Liver Res. 4 (2): 47-63). […] Conversely, when bile acid levels reach high levels, this gene is actively down regulated. These changes are mediated by farnesoid X receptor (FXR), a sensor of bile acid levels, and the master regulator of intracellular bile acid concentrations. CYP7A1 mRNA can therefore be used as a surrogate for monitoring changes in hepatic bile acids in response to ASO treatment. Accordingly, an ASO that successfully increases ABCB11 expression would be expected to promote increased bile acid efflux, thus reducing bile acid levels in the cell. In a wild-type (non-disease) setting, this reduction promotes a compensatory increase in CYP7A1 to restore normal levels.

human ABCB11 mRNA [2] = assay: Liver-humanized FRG knockout mice, human ABCB11 mRNA in liver by qPCR; type: in vivo; details: first study, SC on Days 0 and 7
Protocol: (§1) In a first in vivo study, female liver-humanized FRG® (Fah^−/−; Rag2^−/−; Il2rg^−/−) knockout mice (Yecuris™) were used to assess the efficacy of the human ABCB11 regRNA-targeting ASOs CO-3986 and CO-4535 in the context of cholestasis. The mice were grouped evenly based on albumin and body weight.
A. First Study. Two groups of five mice were dosed with GalNAc3—CO-7378 (CO-3986 conjugated to GalNAc3) or GalNAc3—CO-7379 ([…]) respectively, control via subcutaneous (SC) injection on Days 0 and 7. One group of five mice was dosed with PBS control via SC injection on Days 0 and 7. […] The serum (two tubes for each animal, 15 μL and 25 μL, for each timepoint) was analyzed using LC-MS (Creative Proteomics) to assess bile acids and 7αC4 levels. The remaining samples collected were analyzed for total serum bile acid levels using a commercial kit. […]
(§2) Frozen liver pieces were pulverized on dry ice and RNA extracted using TRIzol™ reagent. cDNA was generated and analyzed using qPCR to detect ABCB11 mRNA levels and other genes of interest as described above. Serum 7αC4 levels were detected using LC-MS (Creative Proteomics). Total serum bile acids were measured using the Total Bile Acid Fluorometric Assay Kit (Cell BioLabs). Liver bile acids were measured using the Total Bile Acid Fluorometric Assay Kit.

bile acids = assay: Liver-humanized FRG knockout mice, liver and serum bile acids; type: in vivo, mouse; details: first study
Protocol: as §1
A. First Study. Two groups of five mice were dosed with GalNAc3—CO-7378 (CO-3986 conjugated to GalNAc3) or GalNAc3—CO-7379 ([…]) respectively, control via subcutaneous (SC) injection on Days 0 and 7. One group of five mice was dosed with PBS control via SC injection on Days 0 and 7. A fourth group of five mice was treated with ursodeoxycholic acid (UDCA) via intraperitoneal (IP) injection on Days 14-21. […] On Day 21, the animals were euthanized for terminal harvest after fasting overnight and >350 μL of whole blood was processed to serum. 100 μL of whole blood was collected in the same manner as the previous bleeds, prior to euthanasia and final exsanguination. Harvested livers were perfused with cold PBS with the left lobe and remnant liver frozen separately after bile salt collection. A piece of the ileum tissue was removed and flushed with PBS and snap-frozen. The serum (two tubes for each animal, 15 μL and 25 μL, for each timepoint) was analyzed using LC-MS (Creative Proteomics) to assess bile acids and 7αC4 levels. The remaining samples collected were analyzed for total serum bile acid levels using a commercial kit.
B. Second Study. In a second in vivo study was conducted to assess the ability of CO-11202 (CO-12367 conjugated with GalNAc3). Mice were dosed with […] on Days 0 and 7 via SC injection. One group of five mice were dosed with PBS control via SC injection on Days 0 and 7. One group of five mice received 10 mg/kg of obeticholic acid (OCA) via oral gavage daily for 21 days. Fasting blood was collected from the mice on Days 0, 7, 14 and 21 (collection performed prior to any SC injections) and processed to serum to analyze bile acid levels. On Day 21, mice were euthanized and livers and ileum tissue harvested and processed as described above.
as §2

bile acid efflux in PHHs = assay: In vitro biliary clearance assay (B-CLEAR) in PHHs, d8-TCA by LC-MS; type: cell-based, human
Protocol: The ACCULIVER™ Human Biliary Clearance Kit (also known as the B-CLEAR® assay; BioIVT) was used to assess bile acid efflux in PHHs after ASO treatment. On Day 0, 4×10^5 cells were plated in 24-well collagen-coated plates and QualGro medium containing […] matrix and ASO was added 4 hrs. later. On Day 2, medium was refreshed. On Day 3, cells from some wells were harvested for RNA analysis using 350 μl Buffer RLT lysis buffer, and lysates frozen at −80° C. for later RNA extraction. On Day 4, cells in the remaining wells had medium refreshed. On Day 6, the assay was performed according to the manufacturer's instructions. Briefly, cells were conditioned with Plus or Minus Buffers provided with the assay for 10 minutes, followed by addition of deuterium-labelled sodium taurocholate (d8-TCA) for 10 mins. Cells were washed 3 times, and frozen after the final wash. Analysis of d8-TCA was performed using liquid chromatography-mass spectrometry (LC-MS) (BioIVT). Calculations of bile acid clearance were made from the resulting LC-MS data according to the manufacturer's instructions.

[3] = PHHs treated for two days, collected Day 2 to Day 7, result on Day 4

Substance | ABCB11 mRNA expression, dose response (human ABCB11 mRNA [1]; PHHs) | ABCB11 mRNA, dose titration (human ABCB11 mRNA [1]; PHHs) | expression of CYP7A1 mRNA, dose response (CYP7A1 mRNA) | CYP7A1 mRNA levels, dose response (CYP7A1 mRNA) | ABCB11 mRNA FC (5 μM ASO vs. UNT) (human ABCB11 mRNA [1]; primary human hepatocytes) | also measured
CO-4535: ASO targeting eRNA RR64 (RR64_v2) of human ABCB11 (antisense eT*eG*eG*e[5mC]*eG*eT*eT*eA*eT*eT*eA*eA*eT*eT*e[5mC]*eT*eA*e[5mC]*eA*eG) | dose-responsive increase | dose-dependent increase | increased expression of CYP7A1 mRNA in a dose-dependent manner | dose-responsive increases | – | ABCB11 mRNA, time course (human ABCB11 mRNA [1]; [3]): strong ABCB11 and CYP7A1 mRNA upregulation; CYP7A1 mRNA, time course (CYP7A1 mRNA; [3]): strong ABCB11 and CYP7A1 mRNA upregulation
CO-4556: ASO targeting eRNA RR74 (RR74_v1) of human ABCB11 (antisense eG*eA*eA*eG*eG*eA*e[5mC]*eA*e[5mC]*eA*eA*eT*eT*eT*e[5mC]*eT*eG*eT*eA*eG) | dose-responsive increase | dose-dependent increase | increased expression of CYP7A1 mRNA in a dose-dependent manner | dose-responsive increases | – | –
CO-4513: ASO targeting a downstream regRNA from enhancer RR62_v2 (antisense eG*eT*eG*eA*eG*eG*e[5mC]*eA*eT*e[5mC]*eA*eG*eG*eT*eA*eA*eG*eT*eT*e[5mC]) | dose-responsive increase | – | – | dose-responsive increases | 1.122 fold change | –
CO-3986: ASO targeting paRNA RR63 of human ABCB11 (antisense eT*eG*eT*eT*eT*eT*eG*e[5mC]*eT*eT*eG*eG*eT*e[5mC]*eA*eA*eG*eA*eG*eG) | – | dose-dependent increase | increased expression of CYP7A1 mRNA in a dose-dependent manner | – | 1.27 fold change | human ABCB11 expression (human ABCB11 mRNA [2]): increased human ABCB11 expression; liver bile acid efflux (bile acids; liver-humanized FRG knockout mice): increased efflux of bile acid; ratio of liver bile acid (BA) to serum BA (bile acids; liver-humanized FRG knockout mice (FIG. 9B)): decreased ratio of liver bile acid (BA) to serum BA; intracellular bile acids (bile acids; liver-humanized FRG knockout mice, ASO-treated mice): lower levels of intracellular bile acids; ABCB11 expression (duplicate wells, qRT-PCR) (human ABCB11 mRNA [1]; PHHs of the B-CLEAR experiment, dose response (FIG. 7A)): increased ABCB11 expression; upregulation of ABCB11 mRNA (human ABCB11 mRNA [1]; PHHs, Day 3, normalized to untreated PHHs): approximately 1.5 fold; CYP7A1 expression (CYP7A1 mRNA; PHHs of the B-CLEAR experiment (FIG. 7B)): upregulated; intracellular and extracellular bile acid levels (bile acid efflux in PHHs; 5 μM and 10 μM ASO, bile acid efflux assay (FIG. 7C)): reduced intracellular and extracellular bile acid levels; efflux of bile acids from the intracellular compartment to the bile cannuliculi (bile acid efflux in PHHs; B-CLEAR assay): increased
CO-7030 (antisense AGAATCGCTGTGGCAGTTAA; fully 2'-MOE, mixed PS/PO, 5-methylcytosine; listed as RNA; modified_base 1..20: mod_base = OTHER; note = Phosphorothioate linkage; note = 2'-O-(2-methoxyethyl) ribonucleotide; modified_base 6: mod_base = OTHER; note = 5-methyl cytidine; modified_base 8: mod_base) | – | – | – | – | 1.372 fold change | –
CO-7150: derivative ASO with additional chemical modifications based on parent ASO CO-4517 (antisense e[5mC]*e[5mC]*eT*eT*eA*dG*dG*dA*eG*dG*dA*dT*dT*eA*dT*dT*dT*eA*eA*e[5mC]*e[5mC]*eT) | – | – | – | – | 1.505 fold change | –
CO-7188: derivative ASO with additional chemical modifications based on parent ASO CO-4535 (antisense eT*eG*eG*l[5mC]*eG*lT*eT*lA*eT*lT*eA*lA*eT*lT*e[5mC]*lT*eA*l[5mC]*eA*eG) | – | – | – | – | 1.697 fold change | –
CO-11240 (antisense eG*eT*eG*eG*lAeG*e[5mC]*eA*eAlA*e[5mC]*eT*eAeG*lG*e[5mC]*eAe[5mC]*eT*eG) | – | – | – | – | – | ABCB11 FC mRNA (5 μM ASO vs. untreated) (human ABCB11 mRNA [1]; primary human hepatocytes, 5 μM ASO with PO-modifications, normalized to untreated hepatocytes): 1.31 fold change

— US20250320496A1, “MODULATION OF ABCB11 GENE TRANSCRIPTION USING ANTISENSE OLIGONUCLEOTIDES TARGETING REGULATORY RNAS” (CAMP4 Therapeutics Corporation, priority 2022, published 2025)
